Test results from patent publication US12384751B2, “Allosteric activators of the ALPHA1A-adrenergic receptor” (The Cleveland Clinic Foundation, priority 2019, dated 2025).
“Also recorded” adds a separate entry of the source.

What was measured:
α1A-AR [1] = molecular target: T1, α1A-AR (Homo sapiens, UniProt P35348); assay: Total inositol phosphate assay at α1A-AR; assay type: cell-based; parameters: expressed in transfected cells; host or cells: Rat-1 fibroblast cells; conditions: for stimulation of inositol phosphate / agonist activity by the compound by itself: compound alone
T1 sequence (P35348 1-466): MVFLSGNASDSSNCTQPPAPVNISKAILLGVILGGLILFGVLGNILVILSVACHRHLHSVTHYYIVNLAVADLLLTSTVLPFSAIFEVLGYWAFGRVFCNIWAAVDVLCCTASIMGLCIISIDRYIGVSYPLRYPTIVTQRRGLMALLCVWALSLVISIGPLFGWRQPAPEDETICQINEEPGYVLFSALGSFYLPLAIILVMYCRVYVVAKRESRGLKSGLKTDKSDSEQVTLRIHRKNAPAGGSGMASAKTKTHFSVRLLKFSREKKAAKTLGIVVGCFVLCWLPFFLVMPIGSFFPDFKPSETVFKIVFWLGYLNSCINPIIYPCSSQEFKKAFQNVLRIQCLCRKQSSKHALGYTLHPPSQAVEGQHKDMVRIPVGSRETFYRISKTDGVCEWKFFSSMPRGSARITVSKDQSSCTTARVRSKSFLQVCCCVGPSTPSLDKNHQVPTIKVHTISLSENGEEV
Procedure: Total Inositol Phosphate assay: Cells expressing a single α1-adrenergic receptor subtypes are washed and re-plated into 6-well plates containing DMEM media at approximately 5×10^5 cells/well. Cells are allowed to rest till the next day in a CO2 incubator at 37° C. The cells are washed twice with DMEM (no serum), then 2 ml of DMEM is added to each well. 2 ul of ^3H-inositol (at 1 uCi/mL, Perkin-Elmer NET 114 005MC) and 10 mM LiCl is added to each well. The cells are incubated for 1 hour at 37° C. in a CO2 incubator. […] The cells are incubated again for 1 hour at 37° C. in a CO2 incubator. The media is aspirated and 1 mL of ice-cold 0.4M perchloric acid is added. The cells are scraped, transferred to a vial, then 1 mL 0.72M KOH/0.6M KHCO3 is added, the tube vortexed and the contents centrifuged at 2000 rpm for 10 mins. The supernatant is removed and applied to BioRad polyprep columns packed with 1 mL of AG1-X8 resin (BioRad AG1-X8 resin 100-200 mesh #140-1444) in 0.1M formic acid in a holding tray which is over a plastic catch tray. The supernatant is allowed to naturally drip through the column then washed with 8 ml of 0.1M formic acid (2 ml at a time). The columns are transferred via the holding tray to a box of 20 ml scintillation vials so that the columns drip directly into the vials. Total inositol phosphates are eluted off the column with 2 ml of 0.1M formic acid/1M ammonium formate. The columns are eluted a second time into a new scintillation vial with another 2 ml of 0.1M formic acid/1M ammonium formate. 18 ml of Ecoscint A is added to each scintillation vial and vortexed. The vials are allowed to dark adapt overnight at room temperature to reduce autofluorescence. The vials are counted in a scintillation counter on the tritium channel and the cpms from the first and second fractions eluted off the columns are added together.

α1A-AR [2] = molecular target: T1, α1A-AR; assay: Competition binding with [125I]HEAT at α1A-AR (Rat-1 fibroblast membranes); parameters: expressed in transfected cells; host or cells: Rat-1 fibroblast cells
Procedure: Competition binding assays: […] Assays were performed in duplicate in HEM buffer, in a total assay volume of 1000 μl. […] The above conditions will convert all the conformations of the receptor into a single low affinity site. To show both high and low affinity sites of the receptor (typically seen with GPCR agonists), the GTP is removed from the binding buffer. Nonspecific binding was determined experimentally in the presence of 10^−4 M phentolamine. Unbound radioactivity was separated from membrane-bound radioactivity by filtration through Whatman GF/C filter paper. Filters are washed five times with 5 ml of cold HEM buffer containing 0.5 mMGTP (if added to the binding buffer but not if it was not added to the binding buffer). Bound radioactivity remaining on the filters was counted on an ICN gamma counter operating at 79.8% efficiency. Data are analyzed using Graphpad Prism.

α1A-AR [3] = molecular target: T1, α1A-AR; assay: cAMP assay at α1A-AR; assay type: cell-based; parameters: expressed in transfected cells; host or cells: Rat-1 fibroblast cells; conditions: for effect on epinephrine-mediated cAMP response at the α1A-AR: 10^−5M to 10^−7M of compound; for effect on norepinephrine-mediated cAMP response at the α1A-AR: 10^−5M to 10^−9M of compound
Procedure: cAMP assay: Cells expressing a single α1-adrenergic receptor subtype are washed and re-plated into 24-well plates in DMEM media without serum at approximately 2.4×10^4 cells/well. Cells are allowed to rest till the next day in a CO2 incubator at 37° C. The cells are washed twice with DMEM (no serum), then 1 ml of DMEM is added to each well. Cells are pre-incubated for 45 mins-1 hour at 37° C. in a CO2 incubator with 10 uM propranolol, followed by 100 uM IBMX for 30 minutes. Final DMSO concentration is at 0.05%. Norepinephrine or epinephrine is added in a dose response (1 dose per well) in addition to one of the Compounds 1-10 at one concentration (i.e. 10^−5M). Cells are incubated for another 30 mins at 37° C. in a CO2 incubator. The reaction is concluded by aspirating the media and adding 0.1M HCL. The mixture is incubated for 20 mins at room temperature. The cells are scraped and suspended until homogenous. The mixture is centrifuged at 1000 g for 10 mins and the supernatant assayed the same day according to a manufacturer's cAMP kit (Cayman Select Cyclic AMP EIA kit #501040).

Normal mice = conditions: cited from earlier work
α1A-AR [4] = molecular target: T1, α1A-AR; assay: Effect of compound on binding affinity of norepinephrine, epinephrine or other ligands at α1A-AR; parameters: expressed in transfected cells; host or cells: Rat-1 fibroblast cells; conditions: for effect on binding affinity of epinephrine at the α1A-AR: 10^−5M (highest dose tested); for effect on binding affinity of norepinephrine at the α1A-AR: fixed dose of compound, 10^−5M to 10^−9M
Procedure: Competition binding assays: These compounds were characterized for their ligand binding properties at the α1-AR subtypes. The binding affinities of Compounds 1-10 were determined in a series of competition-binding experiments with the α1-AR-selective antagonist [^125I]HEAT as the radioligand. Assays were performed in duplicate in HEM buffer, in a total assay volume of 1000 μl. Radioligand binding assays are composed of 5 ug of membranes, harvested from Rat-1 fibroblast cells expressing only one of the alpha1-AR subtypes, HEM buffer containing GTP (composed of 20 mM HEPES, pH 7.4, 1.4 mM EGTA, 12.5 mM MgCl2, pH to 7.4), 0.5 mM GTP, 35-80 pM^125I-HEAT, and various doses of norepinephrine or epinephrine and incubated with shaking at 25° C. for 1-2 hours. The above conditions will convert all the conformations of the receptor into a single low affinity site. To show both high and low affinity sites of the receptor (typically seen with GPCR agonists), the GTP is removed from the binding buffer. Nonspecific binding was determined experimentally in the presence of 10^−4 M phentolamine. Unbound radioactivity was separated from membrane-bound radioactivity by filtration through Whatman GF/C filter paper. Filters are washed five times with 5 ml of cold HEM buffer containing 0.5 mMGTP (if added to the binding buffer but not if it was not added to the binding buffer). Bound radioactivity remaining on the filters was counted on an ICN gamma counter operating at 79.8% efficiency. Data are analyzed using Graphpad Prism.
To determine the effects of compounds 1-10 on the binding affinity of norepinephrine or epinephrine, the competition binding assay was repeated as above with one dose of each individual compound (i.e. 10^−5M) added to each concentration point. Data are normalized to the norepinephrine or epinephrine binding curve alone without the addition of the compound to measure its effect on binding.

α1-ARs = conditions: read-out: calculated Ki; cited from earlier work

binding behaviour against radiolabeled antagonist 125I-HEAT (full inhibition; competitive or allosteric) (α1A-AR [2])	selectivity for the α1A-AR over the α1B-AR and α1D-AR subtypes (α1A-AR [2])	PAM activity / PAM type (α1A-AR [3])	effect on binding affinity of epinephrine at the α1A-AR (α1A-AR [4])	effect on binding affinity of epinephrine at the α1A-AR (α1A-AR [4]; listed as Cirazoline)	effect on binding affinity of norepinephrine at the α1A-AR (α1A-AR [4])	Structure (SMILES)	effect on epinephrine-mediated inositol phosphate response at the α1A-AR (α1A-AR [1])	effect on norepinephrine-mediated inositol phosphate response at the α1A-AR (α1A-AR [1])	stimulation of inositol phosphate / agonist activity by the compound by itself (α1A-AR [1])	effect on epinephrine-mediated cAMP response at the α1A-AR (α1A-AR [3])	effect on norepinephrine-mediated cAMP response at the α1A-AR (α1A-AR [3])	cognition (Normal mice)	neurogenesis (Normal mice)	effect on binding affinity of norepinephrine at the α1A-AR (α1A-AR [4]; listed as Cirazoline)	Ki (α1-ARs)
competitive not allosteric behavior	100 fold	no evidence of PAM activity	–	–	–	Cc1c(OCC2=NCCN2)ccc(Cl)c1NS(C)(=O)=O.Cl [RO115-1240]	competitive/noncompetitive partial agonism, not PAM behavior	competitive/noncompetitive partial agonism, not PAM behavior	weak partial agonist; also recorded: significant IP response on its own	competitive, not PAM behavior; also recorded: shift the curve to the right to lower potency (inhibition)	antagonist at cAMP; also recorded: competitive, not PAM behavior; also recorded: shift the curve to the right to lower potency (inhibition)	–	–	–	–
–	–	no evidence of PAM activity	totally inhibit the binding	fully inhibit	totally inhibit the binding	c1ccc(C2CC2)c(OCC2=NCCN2)c1 [cirazoline]	competitive/noncompetitive partial agonism, not PAM behavior	competitive/noncompetitive partial agonism, not PAM behavior	full agonist at the IP response; also recorded: strong agonist at the IP response	competitive, not PAM behavior	competitive, not PAM behavior	increased	increased	does not increase the affinity of norepinephrine	–
–	–	–	–	–	–	COc1cc2nc(N3CCN(C(=O)c4ccco4)CC3)nc(N)c2cc1OC [prazosin]	–	–	–	–	–	–	–	–	1 nM
